Assay results: PMC9299836 (eLife, 2022)

Key:
[1] = target: T1, mGluR2 (Mus musculus, UniProt Q14BI2, A548F); experiment: Single-molecule FRET (SiMPull) of azi-CRD: population histograms and state occupancy; details: azi-CRD, 5 μM modulator, fraction of total area;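 also: Cy3/Cy5-labelled receptor from HEK293T cell lysate captured on anti-FLAG surfaces, apparent FRET efficiency computed from donor and acceptor intensities with crosstalk correction, pooled into population histograms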
[2] = target: T1, mGluR2; experiment: smFRET of azi-CRD: cross-correlation of donor and acceptor intensities (CRD dynamics) and HMM transition density plots; details: for CRD dynamics by cross-correlation of donor and acceptor intensities: azi-CRD;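 as to all read-outs here: single detergent-solubilized receptors captured on antibody-coated flow cells via C-terminal FLAG-tag, imaged by smFRET, donor and acceptor intensity traces from three independent biological replicates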

T1 sequence (Q14BI2 19-872 A548F): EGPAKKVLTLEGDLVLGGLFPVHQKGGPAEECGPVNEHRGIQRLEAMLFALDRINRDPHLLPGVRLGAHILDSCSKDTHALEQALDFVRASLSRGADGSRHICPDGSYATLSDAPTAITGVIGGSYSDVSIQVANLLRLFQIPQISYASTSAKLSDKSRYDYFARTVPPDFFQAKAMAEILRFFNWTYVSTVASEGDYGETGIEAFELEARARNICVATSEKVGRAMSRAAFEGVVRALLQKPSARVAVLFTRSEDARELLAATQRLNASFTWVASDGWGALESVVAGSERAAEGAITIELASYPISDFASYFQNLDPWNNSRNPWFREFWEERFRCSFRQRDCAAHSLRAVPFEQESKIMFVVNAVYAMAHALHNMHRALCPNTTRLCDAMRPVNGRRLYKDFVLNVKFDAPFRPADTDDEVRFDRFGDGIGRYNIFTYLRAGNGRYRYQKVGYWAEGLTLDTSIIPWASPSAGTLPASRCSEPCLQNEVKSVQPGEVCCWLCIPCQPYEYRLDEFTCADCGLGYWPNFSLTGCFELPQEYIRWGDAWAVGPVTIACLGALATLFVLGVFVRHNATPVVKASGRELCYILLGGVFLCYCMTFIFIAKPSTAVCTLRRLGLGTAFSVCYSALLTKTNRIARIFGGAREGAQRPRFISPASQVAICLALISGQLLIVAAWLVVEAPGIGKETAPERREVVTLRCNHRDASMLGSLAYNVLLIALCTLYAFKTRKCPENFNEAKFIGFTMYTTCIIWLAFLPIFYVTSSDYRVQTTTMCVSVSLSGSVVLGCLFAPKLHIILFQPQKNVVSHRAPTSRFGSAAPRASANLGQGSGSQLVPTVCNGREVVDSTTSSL

Mean occupancy, state 4 (active, FRET 0.87) ([1]; 15 μM glutamate): 0.01952
Mean occupancy, state 1 (inactive, FRET 0.24) ([1]; 1000 μM glutamate): 0.00207
Mean occupancy, state 2 (intermediate 1, FRET 0.38) ([1]; 1000 μM glutamate): 0.5597
Mean occupancy, state 3 (intermediate 2, FRET 0.70) ([1]; 1000 μM glutamate): 0.331
Mean occupancy, state 4 (active, FRET 0.87) ([1]; 1000 μM glutamate): 0.1072
Cross Correlation, Mean ([2]; 0μM Glutamate + GPT/Pyruvate + 5μM MNI-137, Time 0.2 s): -0.028
Cross Correlation, Mean ([2]; 0μM Glutamate + GPT/Pyruvate + 5μM MNI-137, Time 0.25 s): -0.03232
Cross Correlation, Mean ([2]; 0μM Glutamate + GPT/Pyruvate + 5μM MNI-137, Time 0.3 s): -0.03245
Cross Correlation, Mean ([2]; 0μM Glutamate + GPT/Pyruvate + 5μM MNI-137, Time 0.35 s): -0.03285
Cross Correlation, Mean ([2]; 0μM Glutamate + GPT/Pyruvate + 5μM MNI-137, Time 0.4 s): -0.02992
Cross Correlation, Mean ([2]; 0μM Glutamate + GPT/Pyruvate + 5μM MNI-137, Time 0.45 s): -0.02563
Cross Correlation, Mean ([2]; 0μM Glutamate + GPT/Pyruvate + 5μM MNI-137, Time 0.5 s): -0.0232
Cross Correlation, Mean ([2]; 0μM Glutamate + GPT/Pyruvate + 5μM MNI-137, Time 0.55 s): -0.0254
Cross Correlation, Mean ([2]; 0μM Glutamate + GPT/Pyruvate + 5μM MNI-137, Time 0.6 s): -0.02539
Cross Correlation, Mean ([2]; 0μM Glutamate + GPT/Pyruvate + 5μM MNI-137, Time 0.65 s): -0.02363
Cross Correlation, Mean ([2]; 0μM Glutamate + GPT/Pyruvate + 5μM MNI-137, Time 0.7 s): -0.02361
Cross Correlation, Mean ([2]; 0μM Glutamate + GPT/Pyruvate + 5μM MNI-137, Time 0.8 s): -0.02074
Cross Correlation, Mean ([2]; 0μM Glutamate + GPT/Pyruvate + 5μM MNI-137, Time 0.85 s): -0.0233
Cross Correlation, Mean ([2]; 0μM Glutamate + GPT/Pyruvate + 5μM MNI-137, Time 0.9 s): -0.02522
Cross Correlation, Mean ([2]; 0μM Glutamate + GPT/Pyruvate + 5μM MNI-137, Time 0.95 s): -0.02254
Cross Correlation, Mean ([2]; 0μM Glutamate + GPT/Pyruvate + 5μM MNI-137, Time 1 s): -0.02263
Cross Correlation, Mean ([2]; 0μM Glutamate + GPT/Pyruvate + 5μM MNI-137, Time 1.05 s): -0.01654
Cross Correlation, Mean ([2]; 0μM Glutamate + GPT/Pyruvate + 5μM MNI-137, Time 1.1 s): -0.01694
Cross Correlation, Mean ([2]; 0μM Glutamate + GPT/Pyruvate + 5μM MNI-137, Time 1.15 s): -0.0245
Cross Correlation, Mean ([2]; 0μM Glutamate + GPT/Pyruvate + 5μM MNI-137, Time 1.2 s): -0.02011
Cross Correlation, Mean ([2]; 0μM Glutamate + GPT/Pyruvate + 5μM MNI-137, Time 1.25 s): -0.02479
Cross Correlation, Mean ([2]; 0μM Glutamate + GPT/Pyruvate + 5μM MNI-137, Time 1.3 s): -0.01941
Cross Correlation, Mean ([2]; 0μM Glutamate + GPT/Pyruvate + 5μM MNI-137, Time 1.35 s): -0.01897
Cross Correlation, Mean ([2]; 0μM Glutamate + GPT/Pyruvate + 5μM MNI-137, Time 1.4 s): -0.02381
Cross Correlation, Mean ([2]; 0μM Glutamate + GPT/Pyruvate + 5μM MNI-137, Time 1.45 s): -0.01493
Cross Correlation, Mean ([2]; 0μM Glutamate + GPT/Pyruvate + 5μM MNI-137, Time 1.5 s): -0.01697
Cross Correlation, Mean ([2]; 0μM Glutamate + GPT/Pyruvate + 5μM MNI-137, Time 1.6 s): -0.01709
Cross Correlation, Mean ([2]; 0μM Glutamate + GPT/Pyruvate + 5μM MNI-137, Time 1.65 s): -0.01348
Cross Correlation, Mean ([2]; 0μM Glutamate + GPT/Pyruvate + 5μM MNI-137, Time 1.7 s): -0.01427
Cross Correlation, Mean ([2]; 0μM Glutamate + GPT/Pyruvate + 5μM MNI-137, Time 1.75 s): -0.0161
Cross Correlation, Mean ([2]; 0μM Glutamate + GPT/Pyruvate + 5μM MNI-137, Time 1.8 s): -0.01106
Cross Correlation, Mean ([2]; 0μM Glutamate + GPT/Pyruvate + 5μM MNI-137, Time 1.85 s): -0.00832
Cross Correlation, Mean ([2]; 0μM Glutamate + GPT/Pyruvate + 5μM MNI-137, Time 1.9 s): -0.01466
Cross Correlation, Mean ([2]; 15μM Glutamate + 5μM MNI-137, Time 0.2 s): -0.09437
Cross Correlation, Mean ([2]; 15μM Glutamate + 5μM MNI-137, Time 0.25 s): -0.08281
Cross Correlation, Mean ([2]; 15μM Glutamate + 5μM MNI-137, Time 0.3 s): -0.0732
Cross Correlation, Mean ([2]; 15μM Glutamate + 5μM MNI-137, Time 0.35 s): -0.06697
Cross Correlation, Mean ([2]; 15μM Glutamate + 5μM MNI-137, Time 0.4 s): -0.05965
Cross Correlation, Mean ([2]; 15μM Glutamate + 5μM MNI-137, Time 0.45 s): -0.05857
Cross Correlation, Mean ([2]; 15μM Glutamate + 5μM MNI-137, Time 0.5 s): -0.05707
Cross Correlation, Mean ([2]; 15μM Glutamate + 5μM MNI-137, Time 0.55 s): -0.05428
Cross Correlation, Mean ([2]; 15μM Glutamate + 5μM MNI-137, Time 0.6 s): -0.04785
Cross Correlation, Mean ([2]; 15μM Glutamate + 5μM MNI-137, Time 0.65 s): -0.04876
Cross Correlation, Mean ([2]; 15μM Glutamate + 5μM MNI-137, Time 0.7 s): -0.04192
Cross Correlation, Mean ([2]; 15μM Glutamate + 5μM MNI-137, Time 0.75 s): -0.0438
Cross Correlation, Mean ([2]; 15μM Glutamate + 5μM MNI-137, Time 0.8 s): -0.04286
Cross Correlation, Mean ([2]; 15μM Glutamate + 5μM MNI-137, Time 0.85 s): -0.04147
Cross Correlation, Mean ([2]; 15μM Glutamate + 5μM MNI-137, Time 0.9 s): -0.0389
Cross Correlation, Mean ([2]; 15μM Glutamate + 5μM MNI-137, Time 0.95 s): -0.03855
Cross Correlation, Mean ([2]; 15μM Glutamate + 5μM MNI-137, Time 1 s): -0.03542
Cross Correlation, Mean ([2]; 15μM Glutamate + 5μM MNI-137, Time 1.05 s): -0.03118
Cross Correlation, Mean ([2]; 15μM Glutamate + 5μM MNI-137, Time 1.1 s): -0.03249
Cross Correlation, Mean ([2]; 15μM Glutamate + 5μM MNI-137, Time 1.15 s): -0.02794
Cross Correlation, Mean ([2]; 15μM Glutamate + 5μM MNI-137, Time 1.2 s): -0.03365
Cross Correlation, Mean ([2]; 15μM Glutamate + 5μM MNI-137, Time 1.25 s): -0.03207
Cross Correlation, Mean ([2]; 15μM Glutamate + 5μM MNI-137, Time 1.3 s): -0.02844
Cross Correlation, Mean ([2]; 15μM Glutamate + 5μM MNI-137, Time 1.35 s): -0.02868
Cross Correlation, Mean ([2]; 15μM Glutamate + 5μM MNI-137, Time 1.4 s): -0.02437
Cross Correlation, Mean ([2]; 15μM Glutamate + 5μM MNI-137, Time 1.45 s): -0.02342
Cross Correlation, Mean ([2]; 15μM Glutamate + 5μM MNI-137, Time 1.55 s): -0.02529
Cross Correlation, Mean ([2]; 15μM Glutamate + 5μM MNI-137, Time 1.6 s): -0.02454
Cross Correlation, Mean ([2]; 15μM Glutamate + 5μM MNI-137, Time 1.65 s): -0.02035
Cross Correlation, Mean ([2]; 15μM Glutamate + 5μM MNI-137, Time 1.75 s): -0.02381
Cross Correlation, Mean ([2]; 15μM Glutamate + 5μM MNI-137, Time 1.8 s): -0.02039
Cross Correlation, Mean ([2]; 15μM Glutamate + 5μM MNI-137, Time 1.85 s): -0.02364
Cross Correlation, Mean ([2]; 15μM Glutamate + 5μM MNI-137, Time 1.9 s): -0.02018
Cross Correlation, Mean ([2]; 15μM Glutamate + 5μM MNI-137, Time 1.95 s): -0.01877
Cross Correlation, Mean ([2]; 1000μM Glutamate + 5μM MNI-137, Time 0.2 s): -0.2112
Cross Correlation, Mean ([2]; 1000μM Glutamate + 5μM MNI-137, Time 0.25 s): -0.1919
Cross Correlation, Mean ([2]; 1000μM Glutamate + 5μM MNI-137, Time 0.3 s): -0.1758
Cross Correlation, Mean ([2]; 1000μM Glutamate + 5μM MNI-137, Time 0.35 s): -0.1629
Cross Correlation, Mean ([2]; 1000μM Glutamate + 5μM MNI-137, Time 0.4 s): -0.1514
Cross Correlation, Mean ([2]; 1000μM Glutamate + 5μM MNI-137, Time 0.45 s): -0.1426
Cross Correlation, Mean ([2]; 1000μM Glutamate + 5μM MNI-137, Time 0.5 s): -0.1307
Cross Correlation, Mean ([2]; 1000μM Glutamate + 5μM MNI-137, Time 0.55 s): -0.1241
Cross Correlation, Mean ([2]; 1000μM Glutamate + 5μM MNI-137, Time 0.6 s): -0.1177
Cross Correlation, Mean ([2]; 1000μM Glutamate + 5μM MNI-137, Time 0.65 s): -0.1093
Cross Correlation, Mean ([2]; 1000μM Glutamate + 5μM MNI-137, Time 0.7 s): -0.1013
Cross Correlation, Mean ([2]; 1000μM Glutamate + 5μM MNI-137, Time 0.75 s): -0.09952
Cross Correlation, Mean ([2]; 1000μM Glutamate + 5μM MNI-137, Time 0.8 s): -0.09295
Cross Correlation, Mean ([2]; 1000μM Glutamate + 5μM MNI-137, Time 0.85 s): -0.08726
Cross Correlation, Mean ([2]; 1000μM Glutamate + 5μM MNI-137, Time 0.9 s): -0.08538
Cross Correlation, Mean ([2]; 1000μM Glutamate + 5μM MNI-137, Time 0.95 s): -0.07938
Cross Correlation, Mean ([2]; 1000μM Glutamate + 5μM MNI-137, Time 1 s): -0.07503
Cross Correlation, Mean ([2]; 1000μM Glutamate + 5μM MNI-137, Time 1.05 s): -0.07213
Cross Correlation, Mean ([2]; 1000μM Glutamate + 5μM MNI-137, Time 1.1 s): -0.06374
Cross Correlation, Mean ([2]; 1000μM Glutamate + 5μM MNI-137, Time 1.15 s): -0.06369
Cross Correlation, Mean ([2]; 1000μM Glutamate + 5μM MNI-137, Time 1.2 s): -0.0627
Cross Correlation, Mean ([2]; 1000μM Glutamate + 5μM MNI-137, Time 1.3 s): -0.05443
Cross Correlation, Mean ([2]; 1000μM Glutamate + 5μM MNI-137, Time 1.35 s): -0.05075
Cross Correlation, Mean ([2]; 1000μM Glutamate + 5μM MNI-137, Time 1.4 s): -0.05008
Cross Correlation, Mean ([2]; 1000μM Glutamate + 5μM MNI-137, Time 1.45 s): -0.0474
Cross Correlation, Mean ([2]; 1000μM Glutamate + 5μM MNI-137, Time 1.5 s): -0.04472
Cross Correlation, Mean ([2]; 1000μM Glutamate + 5μM MNI-137, Time 1.55 s): -0.04463
Cross Correlation, Mean ([2]; 1000μM Glutamate + 5μM MNI-137, Time 1.65 s): -0.03966
Cross Correlation, Mean ([2]; 1000μM Glutamate + 5μM MNI-137, Time 1.7 s): -0.03894
Cross Correlation, Mean ([2]; 1000μM Glutamate + 5μM MNI-137, Time 1.75 s): -0.03942
Cross Correlation, Mean ([2]; 1000μM Glutamate + 5μM MNI-137, Time 1.8 s): -0.03907
Cross Correlation, Mean ([2]; 1000μM Glutamate + 5μM MNI-137, Time 1.9 s): -0.0321
Cross Correlation, Mean ([2]; 1000μM Glutamate + 5μM MNI-137, Time 1.95 s): -0.034
CRD dynamics by cross-correlation of donor and acceptor intensities ([2]; 5 μM modulator, absence of glutamate): reduced CRD dynamics
Substance: MNI-137
CRD dynamics by cross-correlation of donor and acceptor intensities ([2]; 5 μM modulator with 15 μM and 1 mM glutamate): glutamate concentration-dependent increase in the CRD dynamics
